Data as given in patent US6710045B2, “Heterocyclic fluoroalkenyl thioethers and the use thereof as pesticides (IV)” (priority 2003, dated 2004).

Legend:
[1] = test system: Meloidogyne incognita egg/larvae; experiment: Meloidogyne test (gall formation on lettuce roots); assay type: in vivo; details: active compound concentration 20 ppm; after 14 days
Procedure: Containers are filled with sand, solution of active compound, Meloidogyne incognita egg/larvae suspension and lettuce seeds. The lettuce seeds germinate and the plants develop. On the roots, galls are formed.
After the desired period of time, the nematicidal action is determined in % using gall formation as a measure. 100% means that no galls were found; 0% means that the number of galls on the treated plants corresponds to that of the untreated control.

[2] = test system: larvae of the mustard beetle (Phaedon cochleariae); experiment: Phaedon larvae test (dipped cabbage leaves); details: active compound concentration 0.1%; after 7 days
[3] = logP determination by HPLC (EEC Directive 79/831 Annex V.A8); assay type: physicochemical; details: for chromatographic logP: pH 2.3, HPLC gradient method, acetonitrile/0.1% aqueous phosphoric acid
Procedure: The logP values were determined in accordance with EEC Directive 79/831 Annex V.A8 by HPLC (gradient method, acetonitrile/0.1% aqueous phosphoric acid).

SMILES	nematicidal action (activity) using gall formation as a measure [1] [%]	kill [2] [%]	chromatographic logP [3]	logP (pH 2) [3]
FC(F)=C(F)CCCCSc1nc2ccccc2s1 [Example 1, 2-(6,6,5-trifluorohex-5-enylthio)-benzothiazole]	100	100	4.83	–
O=S(=O)(CCCCC(F)=C(F)F)c1nc2ccccc2s1 [Example 3, 2-(6,6,5-trifluorohex-5-enylsulphonyl)-benzothiazole]	90	–	3.36	–
FC(F)=C(F)CCCCSc1ccc(-c2ccccc2Cl)nn1 [Example 16]	–	–	–	4.37
FC(F)=C(F)CCCCSc1nc2cc(SC(F)(F)F)ccc2o1 [Example 17]	–	–	–	5.62
